Laboratory results published in ChEMBL document CHEMBL3137667, “[Drug-induced liver injury; fourteenth updated edition of the bibliographic database of liver injuries and related drugs]” (Gastroenterol Clin Biol, 2004).
*1 amine or outer side, *2 acyl side, *3 side chain or, on linkers, in order; H or OH if unused. Where a SMILES comes first, the peptide text is derived from it. Bridges are numbered along the chain shown (N, C = ends). Roman numbers before positions name the chains, in order. [ ]: non-standard residue; d: D form. Actinocin(9to1) = Cc1c2oc3c(C)ccc(C(=O)[*:1])c3nc-2c(C(=O)[*:2])c(N)c1=O; NMeV = CN[C@H](C(=O)O)C(C)C; Sar = CNCC(=O)O

How the values were obtained:
[1] = Highest frequency of moderate liver toxicity observed during clinical trials, expressed as a percentage. [column '% BIOL' in source]; settings: human
[2] = Highest frequency of acute liver toxicity observed during clinical trials, expressed as a percentage. [column '% AIGUE' in source]; settings: human
[3] = Presence of at least one case with successful reintroduction. [column 'REINT' in source]; settings: human
[4] = Comments (NB not yet translated). [column 'COMMENTAIRES' in source]; settings: human
[5] = Times to onset, minimal and maximal, observed in the indexed observations. [column 'DELAI' in source]; settings: human
[6] = Proposed mechanism(s) of liver damage. [column 'MEC' in source]; settings: human
[7] = human, serum
[8] = human, serum; remark: listed apart in the source
[9] = human
[10] = human; remark: listed apart in the source
[11] = human; remark: listed apart in the source
[12] = human, serum, 4383 h
[13] = human; remark: listed apart in the source
[14] = human; remark: listed apart in the source
[15] = human; remark: listed apart in the source
[16] = human; remark: listed apart in the source
[17] = human; remark: listed apart in the source
[18] = human; remark: listed apart in the source
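Throughout, for Hepatotoxicity (association with vascular disease): count of indexed literature references reporting vascular liver injury in humans, e.g. peliosis hepatitis, hepatic veno-occlusive disease or Budd-Chiari syndrome.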
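Throughout, for Hepatotoxicity (benign tumour): value is a count of indexed literature references citing a benign tumour confirmed by histopathology.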
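Throughout, for Hepatotoxicity (choleostasis): human cholestatic liver injury, shown by histopathology or by peak ALT or AST elevation over alkaline phosphatase ratio below 2, value counts indexed literature reports.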
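Throughout, for Hepatotoxicity (chronic liver disease): chronic liver injury confirmed by histopathology or persistently raised serum aminotransferase activity beyond 6 months, value given as the count of indexed literature references.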
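Throughout, for Hepatotoxicity (cirrhosis): value is a count of indexed literature references reporting cirrhosis confirmed by histopathology.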
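Throughout, for Hepatotoxicity (cytolytic): human cytolytic liver injury, shown by histopathology or by a ratio above 5 of peak ALT or AST elevation to alkaline phosphatase elevation, value counts indexed references.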
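Throughout, for Hepatotoxicity (granulomatous hepatitis): value is a count of indexed literature references reporting granulomatous liver disease confirmed by histopathology.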
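Throughout, for Hepatotoxicity (malignant tumour): malignant tumour confirmed by histopathology, value gives the count of indexed literature references reporting it.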
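Throughout, for Hepatotoxicity (severe hepatitis): human clinical data: severe hepatitis, meaning potentially life-threatening liver failure or clinically observed cases, the value counts how many indexed literature references report it.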
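Throughout, for Hepatotoxicity (steatosis): steatosis confirmed by histopathology, value is the count of indexed references.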

Molecule	Hepatotoxicity (moderate) [1]	Hepatotoxicity (acute) [2]	Hepatotoxicity (successful reintroduction) [3]	Hepatotoxicity (comment) [4]	Hepatotoxicity (time to onset) [5]	Hepatotoxicity (mechanism) [6]	Hepatotoxicity (moderate) [7]	Hepatotoxicity (acute) [8]	Hepatotoxicity (cytolytic) [9]	Hepatotoxicity (choleostasis) [10]	Hepatotoxicity (severe hepatitis) [11]	Hepatotoxicity (chronic liver disease) [12]	Hepatotoxicity (cirrhosis) [13]	Hepatotoxicity (granulomatous hepatitis) [14]	Hepatotoxicity (association with vascular disease) [15]	Hepatotoxicity (steatosis) [16]	Hepatotoxicity (malignant tumour) [17]	Hepatotoxicity (benign tumour) [18]	also measured
Cc1c2oc3c(C)ccc(C(=O)N[C@@H]4C(=O)N[C@H](C(C)C)C(=O)N5CCC[C@H]5C(=O)N(C)CC(=O)N(C)[C@@H](C(C)C)C(=O)O[C@@H]4C)c3nc-2c(C(=O)N[C@@H]2C(=O)N[C@H](C(C)C)C(=O)N3CCC[C@H]3C(=O)N(C)CC(=O)N(C)[C@@H](C(C)C)C(=O)O[C@@H]2C)c(N)c1=O [DACTINOMYCIN] (I: T[dV]P[Sar][NMeV] / II: T[dV]P[Sar][NMeV]; ester I:1-I:C, II:1-II:C; linker I:N-II:N via Actinocin(9to1))	12%	8.8%	yes	I/RADIOTHERAPIE HNR	3 weeks - 2 months	Dose-dependant	8	7	5	0	6	1	0	0	16	0	0	1	–
CC(C)Cc1ccc(C(C)C(=O)O)cc1 (centres undefined) [IBUPROFEN]	–	–	yes	RC/DICLOFENAC CHOLESTASE_PROLONGEE DUCTOPENIE REACTIVATION_HSV6	1 day - 4 months	Allergic, Overdose	10	20	14	6	–	1	1	0	0	1	0	0	Hepatotoxicity (moderate) ([1]; Liver): 16%; Hepatotoxicity (acute) ([2]; Liver): 0%; Hepatotoxicity (severe hepatitis) ([11]; Liver): 6
INTERFERON ALFA-2A	92%	35.7%	yes	AC_ANTI-ML/-N AGGRAVATION_HAI/HVB I/PARACETAMOL CBP	1 week - 9 months	Allergic, Dose-dependant	50	10	7	2	2	0	1	0	0	0	0	0	–
CC1=C(/C=C/C(C)=C/C=C/C(C)=C/CO)C(C)(C)CCC1.O=C(O)Cc1cc(I)c(Oc2ccc(O)c(I)c2)c(I)c1	–	–	yes	AC_ANTI-N	2 weeks - 9 years	–	0	7	–	–	–	1	1	–	0	0	0	0	Hepatotoxicity (moderate) ([1]; Liver): 0%; Hepatotoxicity (acute) ([2]; Liver): 0%; Hepatotoxicity (mechanism) ([6]; Liver): Allergic; Hepatotoxicity (cytolytic) ([9]; Liver): 7; Hepatotoxicity (choleostasis) ([10]; Liver): 1; Hepatotoxicity (severe hepatitis) ([11]; Liver): 1; Hepatotoxicity (granulomatous hepatitis) ([14]; Liver): 0
CN1CCN2c3ccccc3Cc3ccccc3C2C1 (centres undefined) [MIANSERIN]	26%	0%	yes	RC/NOMIFENSINE	1 day - 1.8 years	Dose-dependant, Reactive metabolite	3	5	3	5	0	0	0	0	0	0	0	0	–
Cc1onc(-c2ccccc2)c1C(=O)N[C@@H]1C(=O)N2[C@@H]1SC(C)(C)[C@@H]2C(=O)O [OXACILLIN]	81%	22%	yes	RC/CEFALOTINE/NAFCILLINE	2 days - 2.5 months	Allergic, Toxic Metabolite	12	17	14	4	0	0	0	1	0	1	0	0	–
CCCCOCC(CN1C(=O)NC(=O)C(CC)(c2ccccc2)C1=O)OC(N)=O (centres undefined) [FEBARBAMATE]	0%	0%	yes	AC_ANTI-N/-LM I/PAROXETINE	8 days - 15 months	Allergic	2	9	9	1	5	0	0	1	0	1	0	0	–
Cc1ccc(-c2nc3ccc(C)cn3c2CC(=O)N(C)C)cc1 [ZOLPIDEM]	0.4%	0%	yes	ENCEPHALOPATHIE	1 day - 3 days	Dose-dependant	3	2	2	0	0	0	0	0	0	0	0	0	–
